In PubChem BioAssay AID2060484 (Molecular Pharmacology Branch, DTP, NCI, 2025):

System: SUM149PT spheroids with HUVEC/MSC, viability
Experiment: Anticancer human tumor SUM149PT cell line growth inhibition [GQUAD];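 note: spheroids exposed to drugs for seven days before readout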;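 for viability, T/C: percent viability relative to DMSO vehicle control taken as 100%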
Settings: for IC50: curve of first compound; for viability, T/C: stronger effect = lower value
Outline: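 Tumor cells were grown as complex spheroids with HUVEC endothelial cells and mesenchymal stem cells as stroma. G-quadruplex stabilizers were combined with targeted agents over half-log dilutions from near the clinical Cmax, or from 10 microM.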

[1] = second compound 0.0316 µM, first compound 0.0316 µM
[2] = second compound 0.0316 µM, first compound 0.1 µM
[3] = second compound 0.0316 µM, first compound 0.316 µM
[4] = second compound 0.0316 µM, first compound 1 µM
[5] = second compound 0.0316 µM, first compound 3.16 µM
[6] = second compound 0.0316 µM, first compound 10 µM
[7] = second compound 0.1 µM, first compound 0.0316 µM
[8] = second compound 0.1 µM, first compound 0.1 µM
[9] = second compound 0.1 µM, first compound 0.316 µM
[10] = second compound 0.1 µM, first compound 1 µM
[11] = second compound 0.1 µM, first compound 3.16 µM
[12] = second compound 0.1 µM, first compound 10 µM
[13] = second compound 0.316 µM, first compound 0.0316 µM
[14] = second compound 0.316 µM, first compound 0.1 µM
[15] = second compound 0.316 µM, first compound 0.316 µM
[16] = second compound 0.316 µM, first compound 1 µM
[17] = second compound 0.316 µM, first compound 3.16 µM
[18] = second compound 0.316 µM, first compound 10 µM
[19] = second compound 1 µM, first compound 0.0316 µM
[20] = second compound 1 µM, first compound 0.1 µM
[21] = second compound 1 µM, first compound 0.316 µM
[22] = second compound 1 µM, first compound 1 µM
[23] = second compound 1 µM, first compound 3.16 µM
[24] = second compound 1 µM, first compound 10 µM
[25] = second compound 3.16 µM, first compound 0.0316 µM
[26] = second compound 3.16 µM, first compound 0.1 µM
[27] = second compound 3.16 µM, first compound 0.316 µM
[28] = second compound 3.16 µM, first compound 1 µM
[29] = second compound 3.16 µM, first compound 3.16 µM
[30] = second compound 3.16 µM, first compound 10 µM
[31] = second compound 10 µM, first compound 0.0316 µM
[32] = second compound 10 µM, first compound 0.1 µM
[33] = second compound 10 µM, first compound 0.316 µM
[34] = second compound 10 µM, first compound 1 µM
[35] = second compound 10 µM, first compound 3.16 µM
[36] = second compound 10 µM, first compound 10 µM

## CC(C)n1c(=O)n(C)c2cnc3cc(F)c(-c4ccc(OCCCN5CCCCC5)nc4)cc3c21 + Cc1[nH]c2ccc(F)cc2c1-c1nc2c3cccnc3c3ncccc3c2[nH]1
Second compound 0.0316 µM
  IC50: > 10 µM
Second compound 0.1 µM
  IC50: > 10 µM
Second compound 0.316 µM
  IC50: > 10 µM
Second compound 1 µM
  IC50: > 10 µM
Second compound 3.16 µM
  IC50: > 10 µM
Second compound 10 µM
  IC50: > 10 µM
[1]
  viability, T/C: 86.3%
[2]
  viability, T/C: 80.9%
[3]
  viability, T/C: 104%
[4]
  viability, T/C: 96.4%
[5]
  viability, T/C: 98.1%
[6]
  viability, T/C: 67.7%
[7]
  viability, T/C: 97.8%
[8]
  viability, T/C: 90.8%
[9]
  viability, T/C: 88%
[10]
  viability, T/C: 101%
[11]
  viability, T/C: 98.5%
[12]
  viability, T/C: 73%
[13]
  viability, T/C: 99.3%
[14]
  viability, T/C: 91.3%
[15]
  viability, T/C: 95%
[16]
  viability, T/C: 103%
[17]
  viability, T/C: 93.8%
[18]
  viability, T/C: 73.2%
[19]
  viability, T/C: 94.8%
[20]
  viability, T/C: 96.4%
[21]
  viability, T/C: 95.7%
[22]
  viability, T/C: 97.5%
[23]
  viability, T/C: 105%
[24]
  viability, T/C: 69.4%
[25]
  viability, T/C: 89.9%
[26]
  viability, T/C: 91.5%
[27]
  viability, T/C: 97.5%
[28]
  viability, T/C: 92.5%
[29]
  viability, T/C: 99.8%
[30]
  viability, T/C: 64.3%
[31]
  viability, T/C: 94.5%
[32]
  viability, T/C: 77.6%
[33]
  viability, T/C: 89%
[34]
  viability, T/C: 92.5%
[35]
  viability, T/C: 94.8%
[36]
  viability, T/C: 62.5%

## CC1COCCN1c1cc(-c2ccnn2C)c2ccnc(-c3ccn[nH]3)c2n1 (stereo unspecified) + Cc1[nH]c2ccc(F)cc2c1-c1nc2c3cccnc3c3ncccc3c2[nH]1
Second compound 0.0316 µM
  IC50: 0.0891 µM
Second compound 0.1 µM
  IC50: 0.0955 µM
Second compound 0.316 µM
  IC50: 0.107 µM
Second compound 1 µM
  IC50: 0.12 µM
Second compound 3.16 µM
  IC50: 0.0972 µM
Second compound 10 µM
  IC50: 0.0939 µM
[1]
  viability, T/C: 90.7%
[2]
  viability, T/C: 45.6%
[3]
  viability, T/C: 25.8%
[4]
  viability, T/C: 26.4%
[5]
  viability, T/C: 27%
[6]
  viability, T/C: 26.3%
[7]
  viability, T/C: 82.7%
[8]
  viability, T/C: 48.6%
[9]
  viability, T/C: 25.1%
[10]
  viability, T/C: 21.8%
[11]
  viability, T/C: 28.6%
[12]
  viability, T/C: 25.7%
[13]
  viability, T/C: 95.1%
[14]
  viability, T/C: 51.4%
[15]
  viability, T/C: 23.3%
[16]
  viability, T/C: 23.9%
[17]
  viability, T/C: 25.8%
[18]
  viability, T/C: 25.3%
[19]
  viability, T/C: 92.4%
[20]
  viability, T/C: 54.5%
[21]
  viability, T/C: 26.4%
[22]
  viability, T/C: 26.4%
[23]
  viability, T/C: 24.8%
[24]
  viability, T/C: 26.6%
[25]
  viability, T/C: 98.2%
[26]
  viability, T/C: 48.8%
[27]
  viability, T/C: 25.4%
[28]
  viability, T/C: 26.2%
[29]
  viability, T/C: 25.7%
[30]
  viability, T/C: 22.5%
[31]
  viability, T/C: 92.7%
[32]
  viability, T/C: 47.6%
[33]
  viability, T/C: 24.2%
[34]
  viability, T/C: 27.4%
[35]
  viability, T/C: 23%
[36]
  viability, T/C: 24.1%

## CC1COCCN1c1cc(C2(O)CC3CCC(C2)O3)c2cnn(-c3ccn[nH]3)c2n1 (stereo unspecified) + Cc1[nH]c2ccc(F)cc2c1-c1nc2c3cccnc3c3ncccc3c2[nH]1
Second compound 0.0316 µM
  IC50: 0.0738 µM
Second compound 0.1 µM
  IC50: 0.0778 µM
Second compound 0.316 µM
  IC50: 0.0841 µM
Second compound 1 µM
  IC50: 0.076 µM
Second compound 3.16 µM
  IC50: 0.0711 µM
Second compound 10 µM
  IC50: 0.0619 µM
[1]
  viability, T/C: 74.5%
[2]
  viability, T/C: 40.2%
[3]
  viability, T/C: 27.5%
[4]
  viability, T/C: 23.9%
[5]
  viability, T/C: 22%
[6]
  viability, T/C: 15.9%
[7]
  viability, T/C: 78.9%
[8]
  viability, T/C: 40.5%
[9]
  viability, T/C: 28.3%
[10]
  viability, T/C: 22.6%
[11]
  viability, T/C: 23.9%
[12]
  viability, T/C: 15.4%
[13]
  viability, T/C: 80.9%
[14]
  viability, T/C: 45.6%
[15]
  viability, T/C: 24.6%
[16]
  viability, T/C: 25.5%
[17]
  viability, T/C: 25.4%
[18]
  viability, T/C: 14.7%
[19]
  viability, T/C: 81.8%
[20]
  viability, T/C: 40.2%
[21]
  viability, T/C: 24.8%
[22]
  viability, T/C: 23.5%
[23]
  viability, T/C: 23.6%
[24]
  viability, T/C: 17.6%
[25]
  viability, T/C: 78.4%
[26]
  viability, T/C: 38.2%
[27]
  viability, T/C: 22.3%
[28]
  viability, T/C: 25.8%
[29]
  viability, T/C: 23.5%
[30]
  viability, T/C: 15.3%
[31]
  viability, T/C: 74.9%
[32]
  viability, T/C: 32.2%
[33]
  viability, T/C: 22.9%
[34]
  viability, T/C: 23.1%
[35]
  viability, T/C: 24.7%
[36]
  viability, T/C: 16.2%
